The source of these data is the METLIN SMRT retention time set (Domingo-Almenara et al. 2019).

The nature of the series: gradient 5% acetonitrile 3 min, to 50% in 2 min, to 85% in 15 min, held 3 min, 100 µL/min. The settings on record: column: Zorbax Extend-C18 2.1 x 50 mm; eluents: water / acetonitrile, 0.1% formic acid. Put shortly: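 Retention times come from adduct peaks that were picked computationally and then checked by hand. The standards, pure and pooled in mixtures of ~100 molecules, were run on a Zorbax Extend-C18 column (2.1 × 50 mm, 1.8 μm) at 100 μL/min with water and acetonitrile, each with 0.1% formic acid. Detection was by quadrupole time-of-flight mass spectrometry in positive and negative ionization mode, with a dead volume of 40 μL and a dwell volume of 900 μL.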
As for `CC(=O)c1cccc(NC(=O)Cn2c(=O)n(-c3ccccc3)c(=O)c3c2cc(C)n3C)c1`, the RP-LC retention time turned out to be 763 s. On to `O=C(CN1C(=O)COc2ccc(C(=O)N3CCCC3)cc21)N1CCc2ccccc2C1`, for which the RP-LC retention time came to 721 s. To `NC(=O)Nc1ccc(Nc2ccccc2)cc1` belongs 752 s; to `CCc1nc(N)n(CC(=O)NCc2ccc(F)cc2F)c(=O)c1C`, 632 s.

Take `CCC(=O)N1CCc2cc(CNC(=O)c3ccnn3C)ccc21`: the RP-LC retention time was determined as 665 s. For `CN1C(=O)C2CCCCN2c2ccc(C(=O)N3CCc4ccccc4C3)cc21` (stereo unspecified), the RP-LC retention time amounted to 946 s.

`CCN1C(=O)C(C)(C(=O)Nc2ccc(F)cc2F)Oc2cccnc21` (stereo unspecified): the RP-LC retention time came out at 875 s. The result for `COCCNC(=O)C1COc2ccc(NC(=O)c3ccc(Br)cc3)cc2C1` (stereo unspecified) reads 774 s; that for `CN1CC(=O)N(CC(=O)NC2CCCCCCC2)c2ccccc2C1=O`, 717 s.

In turn, `CSc1cccc(NC(=O)C2CCN(c3cnc4nc(C)c(C)nc4c3)CC2)c1` returned an RP-LC retention time of 758 s.

`CC1CCN(c2cc(-n3cnc(C(=O)N4CCN(c5ccccn5)CC4)c3)ncn2)CC1` showed an RP-LC retention time of 675 s.

Regarding `CCCCCn1c(=O)c2ccccc2n(Cc2nc(-c3ccc(C)c(C)c3)no2)c1=O`, the RP-LC retention time was 795 s. The result for `O=C(Cn1ccn2nc(-c3ccccc3)c(CO)c2c1=O)NCc1ccc2c(c1)OCO2` reads 738 s. To `Cc1ccc(S(=O)(=O)c2ccc(C(=O)N3CCN(c4ccccn4)CC3)cn2)cc1C` belongs 658 s; to `O=C1CC(c2cccs2)Cc2nc(N3CCN(c4ccccn4)CC3)ncc21` (stereo unspecified), 674 s; to `COC(=O)c1cc(OCC(=O)Nc2ccc(F)cc2F)c2cc(OC)ccc2n1`, 822 s. `COc1cc2c(cc1CNC(=O)C(=O)c1c[nH]c3ccccc13)OCCCO2` displayed an RP-LC retention time of 1320 s. To `O=C(Nc1ccc2c(c1)CN(C(=O)COc1ccccc1)CCO2)C1CC1` belongs 752 s. Compound `CCN(CC)CCCNC(=O)C(C)n1c(=O)c(C(F)(F)F)nc2ccccc21` (stereo unspecified) registered an RP-LC retention time of 664 s. To `COc1ncccc1CNC(=O)NC1CCCCC1` belongs 713 s; to `Cc1ccc(S(=O)(=O)N2CCC(c3nc(-c4ccccn4)no3)CC2)cc1C`, 970 s. The result for `Cc1ccc(S(=O)(=O)N(C)CC2CCOC2)cc1Cl` (stereo unspecified) reads 895 s. The result for `Cc1sc2nc(SCC(=O)Nc3sc4c(c3C#N)CCCC4)n(C)c(=O)c2c1C` reads 1080 s. `CCN1CCN(CCNC(=O)C2CCN(c3nccnc3Sc3ccc(C)cc3)CC2)CC1` yielded an RP-LC retention time of 639 s. In the case of `COc1ccc(-c2nnc(-c3ccccc3)o2)cc1S(=O)(=O)NC(C)(C)CO`, the RP-LC retention time was determined as 759 s. In the case of `O=C(Nc1nc(-c2ccc(F)cc2)cs1)c1c(-c2ccccc2)nc2n1CCS2(=O)=O`, the RP-LC retention time turned out to be 1000 s. `O=C(Nc1cccc(N2CCCS2(=O)=O)c1)Nc1cccs1`: the RP-LC retention time was 696 s. To `CCOc1cccc2c(C)nc(NC3=NCN(CCOC)CN3)nc12` belongs 643 s; to `CCCCCNC(=O)c1ccc(Oc2nccnc2N2CCSCC2)cc1`, 1030 s; to `O=C(NCCN1CCOCC1)c1sc2cc(Cl)ccc2c1Cl`, 590 s. The result for `Cc1ncn(CC(=O)Nc2ccc(F)cc2F)c(=O)c1C` reads 642 s; that for `CCc1nc2c(=O)n(CC(=O)N3CCCC(C)C3)nc(C)c2s1` (stereo unspecified), 726 s; that for `O=C(Nc1ccc(Cl)cc1C(F)(F)F)N1CCC(n2cnnc2C2CC2)C1` (stereo unspecified), 704 s.

For `Cc1cccc(CN2CCc3nc(N4CCN(c5ccccc5F)CC4)ncc3C2)c1`, the RP-LC retention time worked out at 810 s. To `O=C(Nc1ccc(F)c(F)c1)C1CCCN(S(=O)(=O)Cc2ccc(F)cc2)C1` (stereo unspecified) belongs 990 s. To `CCOC(=O)c1nc(NC(C)c2ccccc2)c2ccccc2n1` (stereo unspecified) belongs 794 s; to `O=C(NC1CC1)c1nc2ccccn2c1-c1ccc(Cl)cc1`, 802 s.

With `CCn1c(=O)n(Cc2ccccc2C(F)(F)F)c2cncnc21`, the RP-LC retention time came out at 834 s. Take `Cc1cccc(N2CCN(C(=O)c3ccc(Cn4cncn4)cc3)CC2C)c1` (stereo unspecified): the RP-LC retention time worked out at 676 s. Compound `O=C(c1ccc(F)cc1)N1c2nc(-c3ccccc3)nn2C2(CCCCC2)[C@@H]2CCCC[C@@H]21` registered an RP-LC retention time of 576 s. To `O=C(c1ccncc1)N1CCC(c2noc(-c3cnccn3)n2)C1` (stereo unspecified) belongs 584 s. In turn, `COc1ccc(-c2cc3n(n2)CCCN(C(=O)C2CCCO2)C3)cc1` (stereo unspecified) yielded an RP-LC retention time of 700 s. The compound `O=C1NCCCn2cc(S(=O)(=O)NCc3cccc(C(F)(F)F)c3)cc21` returned an RP-LC retention time of 718 s. `CCc1nccn1Cc1noc(-c2ccc(Cl)cc2)n1` came in with an RP-LC retention time of 668 s.

Consider `CC(C)c1ccc(S(=O)(=O)N2CCC(n3c(-c4ccco4)nc4cccnc43)C2)cc1` (stereo unspecified), for which the RP-LC retention time turned out to be 1060 s. In turn, `O=C(Cn1ccc2ccccc21)N1CCN(c2ccc(C(F)(F)F)cn2)CC1` gave an RP-LC retention time of 982 s. `COc1ccc(N2CCN(c3cc(SCC(=O)Nc4cccc(OC)c4)ncn3)CC2)cc1` yielded an RP-LC retention time of 894 s.

As for `CCN(CC)C(=O)c1cnc2nc(C)ccc2c1Nc1ccc2c(c1)OCCO2`, the RP-LC retention time stood at 601 s. To `Cc1noc(C)c1C1CCCN1C(=O)CCc1ccccc1` (stereo unspecified) belongs 775 s; to `Cc1cccc(CN2CCc3nc(C)n(CC(=O)Nc4ccc5c(c4)OCO5)c(=O)c3C2)c1`, 575 s; to `O=C(CN1C(=O)C2CCCCN2c2ccc(C(=O)N3CCCCC3)cc21)NC1CCCC1` (stereo unspecified), 828 s.

On to `O=C(CCc1nc(C2=CCN(Cc3ccc(Cl)cc3)CC2)no1)NCc1cccs1`, for which the RP-LC retention time is 688 s.

As for `CC1CCC(NC(=O)C2CCN(S(=O)(=O)c3ccc4c(c3)sc(=O)n4C(C)C)CC2)CC1` (stereo unspecified), the RP-LC retention time came to 1020 s.

`COc1cccc(-c2csc(-c3nnn(-c4ccc(Cl)cc4)c3N)n2)c1` yielded an RP-LC retention time of 1170 s. To `Cn1cc(CCNC(=O)Nc2ccc(F)cc2)c2cccnc21` belongs 679 s; to `CS(=O)(=O)N1CCCC(C(=O)Nc2ccc3c(c2)C(=O)NC3=O)C1` (stereo unspecified), 612 s. To `COc1ccc(C2(C(=O)N3CCC(n4c(C)cnc4C4CCC4)CC3)CC2)cc1` belongs 662 s; to `O=C(NCc1ccc2c(c1)OCO2)c1c(O)c2cccnc2n(-c2ccc(F)cc2)c1=O`, 1120 s.

As to `O=C(CCn1cnc2cc(-c3noc(/C=C/c4ccccc4Cl)n3)ccc21)N1CCOCC1`, the RP-LC retention time came to 794 s. Regarding `CC(C)Cn1cc(CCNC(=O)c2ccccc2)c2cccnc21`, the RP-LC retention time worked out at 770 s.

Consider `Cc1ccc(-c2nnc(N3CCC(C(=O)NC4CCCCCC4)CC3)o2)cc1`, for which the RP-LC retention time turned out to be 949 s. Compound `COCC(=O)Nc1cnc(N2CCCCC2)nc1` yielded an RP-LC retention time of 683 s.

Turning to `CCCn1cnc2cc(CNS(=O)(=O)c3ccc(F)cc3)ccc21`, the RP-LC retention time turned out to be 635 s. `O=C(Nc1ccc(Cl)cc1)C1CCN(c2nccnc2Sc2ccccc2)CC1` yielded an RP-LC retention time of 1160 s.

Take `COCCn1nc2n(c1=O)CCC1(CC2)CCN(C(=O)C2CCCCCC2)CC1`: the RP-LC retention time was found to be 710 s.

`COc1cc2ncc(C#N)c(N3CCC(C(=O)Nc4cccc(Cl)c4)CC3)c2cc1OC` showed an RP-LC retention time of 816 s.

`CSc1ccccc1C(=O)NCC1CCN(S(C)(=O)=O)CC1` showed an RP-LC retention time of 641 s.

Turning to `COc1cccc(NC(=O)N(C)CCc2noc(COc3ccccc3F)n2)c1`, the RP-LC retention time came to 692 s. The result for `Cn1c(=O)n(C)c2cc(S(=O)(=O)NCc3ccco3)ccc21` reads 636 s. `COCc1cc2nn(CC(=O)N3CCc4ccccc43)c(=O)n2c(-c2ccccc2)n1` registered an RP-LC retention time of 856 s. To `O=C(NC1CC1)c1nnc(-c2ccc(S(=O)(=O)N3CCCC3)cc2)o1` belongs 730 s; to `CC(C)Cn1cc(S(=O)(=O)Nc2ccc(F)cc2F)c2cccnc21`, 944 s; to `CCc1cccc(C)c1Nc1c(-c2ccc(OC)cc2)nc2ncccn12`, 788 s. In turn, `COCCN1C(=O)CC[C@]2(C(=O)NCc3cc(F)ccc3F)CCCC[C@@H]12` gave an RP-LC retention time of 724 s. Take `CCn1c(SCC(=O)N2CCC(C(N)=O)CC2)nnc1-c1sc2ncccc2c1N`: the RP-LC retention time came to 603 s. In turn, `CSc1cccc(NC(=O)N2CCN(C)CC2)c1` displayed an RP-LC retention time of 647 s. In the case of `O=C(NCc1ccc(F)cc1)N1CC(n2ccnc2)C1`, the RP-LC retention time turned out to be 577 s. Take `CCN1CCCCc2cc(C(=O)NCC(F)F)sc21`: the RP-LC retention time came to 892 s. As for `CCC(C)C(=O)N1CC(N(Cc2ccncc2)CC(C)C)C1` (stereo unspecified), the RP-LC retention time came to 635 s. `CCc1noc(-c2cnc3nc(C)ccc3c2Nc2ccccc2OC)n1` yielded an RP-LC retention time of 629 s.

In turn, `Cc1cccc(-c2nnc(-c3cccc(S(=O)(=O)N4CCCCC4)c3)o2)c1` registered an RP-LC retention time of 1140 s.
